The values that follow come from patent US20220153739A1, “OPIOID RECEPTOR MODULATOR AND USE THEREOF” (Arriba BioPharma, Inc., priority 2020, published 2022).

A short description of data set [1]: Bidirectional permeability in Caco-2 cells. It counts as in vitro ADME. Particulars: human, 120 minutes; for Papp B→A at 120 min, 2 μM: Caco-2, Caco-2, B to A direction, read-out: mean apparent permeability coefficient (Papp), B to A. How it is done:
(§1) The objective of this study was to determine the bidirectional permeability and efflux ratio of compound D in the Caco-2 cells. Caco-2 cells (purchased from ATCC) at passage number 49 were seeded on 96-well transport inserts and cultured for 22 days before being used for the transport experiment. Compound D was dosed bi-directionally at 2 μM. Samples were taken at 0 and 120 minutes after incubation and analyzed by LC-MS/MS. […] Therefore, both the efflux ratios could not be calculated.

The subject of data set [2] is male CD-1 mice. As to the kind of experiment: Stress induced fecal output. The format is in vivo. To be noted: for 0 h (Stools), mean / 0-1 h (Stools), mean / 1-2 h (Stools), mean / 2-4 h (Stools), mean: 50 mg/kg PO, stress induced. From the text: The animals used in the studies are male CD-1 mice, average weight about 25 to 35 g, with an average of 5 mice per dose group. The mice were generally housed in colony housing where they are housed 4 per cage in polycarbonate 20 cages with access to food and water ad lib. On the day of the experiment they are transported to the procedure room where they were individually housed in metabolism cage (CAT003) after intragastric administration of Compound D at 50mpk, a reference compound of Formula II (“ORP-101”), and the vehicle alone. Compound D (“ALB-215896”) and the reference compound were each weighed and dissolved in 2.58 ml of de-ion water, mixed by vortex, to prepare the compound D and reference compound solutions at 5 mg/mL.
During the test, the animals were fasted with free access to water. The wire mesh bottomed tall cage creates a novel environment which induces stress in mice. Stool collection and the number of pellets excreted were determined 0, 1, 2, 4 hours after administration. […] Details data of this study is provided below in Table 1.

Data set [3] concerns male CD-1 mice. As to the kind of experiment: Post-inflammatory altered GI transit time (mustard oil), fecal output. The format is in vivo. Particulars: for 0 h (Stools), mean / 1 h (Stools), mean / 2 h (Stools), mean / 4 h (Stools), mean: 50 mg/kg PO, post-inflammatory. How it is done: This test was designed to measure the effect of test substance on gastrointestinal hypersensitivity that occurs following inflammation. Post-inflammatory altered GI transit was induced in male CD-1 mice by injecting freshly opened oil of mustard (95% pure allyl isothiocyanate, 0.5% in ethanol). The effect of stress on GI is motility is evaluated 4 weeks later, when although there is no longer inflammation, the GI tract remains in a hypersensitive state. Effect of test substance was measured after oral administration (intragastric gavage) and subjecting the animals to environmental stress by housing them in metabolism cage. During the test, the animals were allowed access to water ad lib. The wire mesh bottomed tall cage creates a novel environment, which induces stress in mice. The number of pellets excreted was determined at 1 h, 2 h and 4 h after administration. Compound D (ALB-215896) and ORP-101 were each weighed and dissolved in 2.58 ml of de-ion water, mixed by vortex, to prepare the compound D and reference compound solutions at 5 mg/mL.

Data set [4] can be described thus: Metabolic stability in SD rat liver microsomes. The format is in vitro ADME. On the procedure: (§2) The metabolic stability of Compound D in SD rat and human liver microsomes were measured One (1) μM of Compound D was incubated with SD rat or human liver microsomes with NADPH in a water bath or tecan at 37° C. for up to 60 min. All samples were monitored using LC-MS/MS.

A short description of data set [5]: Metabolic stability in human liver microsomes. The format is in vitro ADME. On the procedure:
as §2

For data set [6], the system named is Caco-2 cells. As to the kind of experiment: Bidirectional permeability in Caco-2 cells. It counts as in vitro ADME. How it is done: as §1
The mark [7] stands for this setting: 1 μM, NADPH, 37° C., up to 60 min, read-out: half-life (T1/2).
[8] abbreviates: read-out: intrinsic clearance (CLint(liver)).

In the case of `CO[C@]12CC[C@@]3(C[C@@H]1[C@](C)(O)C(C)(C)C)[C@H]1Cc4ccc(OCCOc5ccc6c7c5O[C@H]5C78CCN(CC7CC7)[C@H](C6)[C@]86CC[C@]5(OC)[C@@H]([C@](C)(O)C(C)(C)C)C6)c5c4[C@@]3(CCN1CC1CC1)[C@@H]2O5` [ORP-101, reference compound], the Papp B→A at 120 min, 2 μM in data set [1] was < 0.13 ×10⁻⁶ cm/s. The Papp A→B at 120 min in data set [1] (Caco-2, apical to basolateral, read-out: mean apparent permeability coefficient (Papp), A to B) was < 0.14 ×10⁻⁶ cm/s. Further, in data set [2], the “0 h (Stools), mean” value turned out to be 0 Stools; the “0-1 h (Stools), mean” value is recorded as 3.8 Stools; the “1-2 h (Stools), mean” value turned out to be 3 Stools; the “2-4 h (Stools), mean” value stood at 2.8 Stools. Besides, in data set [3], the “0 h (Stools), mean” value was 0 Stools; the “2 h (Stools), mean” value is 2.00 Stools; the “4 h (Stools), mean” value is 3.75 Stools. Besides, the “1 h (Stools), mean” value in data set [3] (1 h) is listed as 1.75 Stools.
With `COc1ccc2c3c1O[C@@H]1[C@@]4(OCCOc5ccc6c7c5OC5C8(OC)CC[C@@]9(CC8[C@](C)(O)C(C)(C)C)[C@@H](C6)N(CC6CC6)CCC759)CC[C@@]5(C[C@@H]4[C@](C)(O)C(C)(C)C)[C@@H](C2)N(CC2CC2)CC[C@]315` (stereo in doubt) [Compound D, 2-((4R,4aS,6R,7R,7aR,12bS)-9-(2-(((4R,4aS,6R,7R,7aS,12bS)-9-(Methyloxy)-3-(cyclopropylmethyl)-6-(2-hydroxy-3,3-dimethylbutan-2-yl)-1,2,3,4,5,6 hexahydro-4a,7-ethano-4,12-methanobenzofuro[3,2-e]isoquinolin-7(7aH)yl)oxy)ethoxy)-3-(cyclopropylmethyl)-7-methoxy-1,2,3,4,5,6,7,7a-octahydro-4a,7ethano-4,12-methanobenzofuro[3,2-e]isoquinolin-6-yl)-3,3-dimethylbutan-2-ol], the “metabolic stability in words” value in data set [4] was “moderately metabolized”. Moreover, in data set [4] (setting [7]), the half-life at 1 μM was 1.46 h. For the same compound, the CLint scaled at 1 μM in data set [4] (setting [8]) amounted to 28.5 mL/min/kg. Besides, in data set [5], the “metabolic stability in words” value is reported as “stably metabolized”. Further, the half-life at 1 μM in data set [5] (setting [7]) amounted to 1.37 h. Further, in data set [5] (setting [8]), the CLint scaled at 1 μM is 15.2 mL/min/kg. Also, the apparent permeability from basolateral to apical (Papp B→A) at 120 min, 2 μM in data set [1] was < 0.4 ×10⁻⁶ cm/s. Further, the Papp A→B at 120 min, 2 μM in data set [1] (Caco-2, apical to basolateral, 2 μM, read-out: mean apparent permeability coefficient (Papp), A to B) is < 0.48 ×10⁻⁶ cm/s. Also, in data set [6] (Caco-2, B to A direction, 120 minutes), the “mean apparent permeability coefficient (Papp), B to A” value is < 0.5 ×10⁻⁶ cm/s. The substrate of transporters result in data set [6] (Caco-2, from B to A Papp) was “poor and no substrate of transporters”. Also, in data set [6] (across the Caco-2 cell monolayer), the permeability classification entry is recorded as “low permeability”. In data set [2], the “0 h (Stools), mean” value was found to be 0 Stools; the “0-1 h (Stools), mean” value was 2.4 Stools; the “1-2 h (Stools), mean” value worked out at 1.4 Stools; the “2-4 h (Stools), mean” value stood at 2 Stools. Moreover, the “fecal output versus vehicle and reference compound, in words” value in data set [2] (oral 50mpk, 1 h, 2 h and 4 h time points) is reported as “significantly reduced the fecal output”. Moreover, in data set [3], the “0 h (Stools), mean” value worked out at 0.00 Stools; the “2 h (Stools), mean” value turned out to be 1.59 Stools; the “4 h (Stools), mean” value is recorded as 2.77 Stools. Moreover, the “1 h (Stools), mean” value in data set [3] (1 h) is 1.49 Stools. The “gastrointestinal motility measured by fecal output, in words” value in data set [3] (50mpk, 1 h, 2 h, and 4 h time points, post-inflammatory model) is listed as “significantly decreased gastrointestinal motility”.
